In US20260317367A1, “SALTS INCLUDING CRYSTALLINE SALTS OF 25-HYDROXY-CHOLEST-5-EN-3-SULFATE AND METHODS FOR PREPARING SAME” (Durect Corporation, priority 2022, published 2026):
“Also recorded” adds a separate entry of the source. Where a name gives a salt, the structure may show the parent alone. Blank lines part the entries; values can stand above or below the molecule they belong to.

What was measured:
Assay type in all cases: physicochemical
[1] = Solubility of 25HC3S salts after one day at room temperature (HPLC, as free acid); details: one day; for Solubility in ACN: acetonitrile; for Solubility in EtOH: ethanol; for Solubility in EtOH / Solubility in MeOH: ≥ = did not reach saturation; for Solubility in IPA: isopropyl alcohol; for Solubility in MeOH: methanol; for Solubility in H2O: water
How it was run: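 25HC3S salts were shaken with excess solid at room temperature for one day in organic solvents or aqueous/biorelevant media (FaSSIF, FeSSIF, FaSSGF), then centrifuged. Supernatants were assayed by HPLC against a free-acid standard curve (11 μg/mL to 1.5 mg/mL); values are mg/mL free acid, LOD 0.0007 mg/mL.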

[2] = Solid-state chemical stability of 25HC3S salts at 2-8° C., 60° C. and 80° C. (HPLC assay and degradation products); details: for % Impurities, Total / % Impurities, 25-HC: ND = Not Detected; for % Impurities, 25-HC: 25-Hydroxy-Cholesterol; for % Recovery: vs 2-8° C.
How it was run: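 Crystalline 25HC3S salts (~25 mg powder per vial) stored at 2-8° C. or 80° C., pulled at 3 and 6 weeks; some 3-week 2-8° C. vials moved to 60° C. for 1 week. Dissolved in 100% methanol (sonication/vortexing, centrifugation or dilution), then HPLC against 25HC3S sodium standards (0.75-1.25 mg/mL) for assay and degradants.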

[3] = Dynamic vapor sorption (DVS), hygroscopicity
Description: Dynamic vapor sorption (DVS) measures the uptake of a vapor (typically water) by a sample when exposed to a changing relative humidity. The loss of water can also be measured as relative humidity is decreased. Hygroscopic materials tend to absorb water more readily than non-hygroscopic. In some cases, hydrates absorb water to create higher-order hydrates (e.g., a monohydrate converting to a dihydrate when exposed to increasingly humid conditions). In some salts of the disclosure, moisture is retained upon exposure in a DVS experiment and little or no weight loss is observed upon heating from room temperature. In such experiments, the hygroscopic nature of the salt under study may indicate the formation of a hydrate from an anhydrate. […] Exemplary methods for collecting DVS data are set forth in Example 26.
Dynamic vapor sorption data was collected on a Surface Measurement System DVS Intrinsic instrument. The samples were not dried prior to analysis. Sorption and desorption data were collected over a range from 5% to 95% RH in 10% RH increments under a nitrogen purge. The equilibrium criteria used for the analyses were 0.001 dm/dt weight change in 5 minutes with a minimum step time of 30 minutes and maximum equilibration time of 180 minutes with a 3 minute data logging interval. Data were not corrected for the initial moisture content of the sample.

[4] = room temperature, as free acid, ND = not detected, detection limit 0.7 μg/mL, 1440 min, listed as 25HC3S choline
[5] = room temperature, as free acid, 1440 min, listed as 25HC3S choline
[6] = 2-8° C., 3 wk, listed as 25HC3S choline
[7] = 2-8° C., 5 wk, listed as 25HC3S choline
[8] = 80° C., 3 wk, listed as 25HC3S choline
[9] = 80° C., 5 wk, listed as 25HC3S choline
[10] = room temperature, as free acid, ND = not detected, detection limit 0.7 μg/mL, 1440 min, listed as 25HC3S hydroxyethylammonium
[11] = room temperature, as free acid, 1440 min, listed as 25HC3S hydroxyethylammonium
[12] = 2-8° C., 3 wk, listed as 25HC3S hydroxyethylammonium
[13] = 60° C., 1 wk, listed as 25HC3S hydroxyethylammonium

Solubility in 5% Dextrose [1, 4]: 93 µg/mL
Solubility in FaSSGF ([1]; FaSSGF, room temperature, as free acid, ND = not detected, detection limit 0.7 μg/mL, 1440 min, listed as 25HC3S choline): 8 µg/mL
Solubility in FaSSGF (in words) ([1]; FaSSGF, room temperature, listed as crystalline 25HC3S choline): low solubility
Solubility in FaSSIF ([1]; FaSSIF, room temperature, as free acid, 1440 min, listed as 25HC3S choline): 152 µg/mL
Solubility in FaSSIF (in words) ([1]; FaSSIF, room temperature, listed as crystalline 25HC3S choline): relatively high solubility
Solubility in FeSSIF ([1]; FeSSIF, room temperature, as free acid, 1440 min, listed as 25HC3S choline): 827 µg/mL
Solubility in FeSSIF (in words) ([1]; FeSSIF, room temperature, listed as crystalline 25HC3S choline): relatively high solubility
Solubility in ACN [1, 5]: 500 µg/mL
Solubility in EtOH [1, 5]: 3400 µg/mL
Solubility in IPA [1, 5]: 600 µg/mL
Solubility in MeOH [1, 5]: 17500 µg/mL
Solubility in saline / 0.9% sodium chloride (in words) ([1]; saline, room temperature, listed as crystalline 25HC3S choline): low solubility
Solubility in H2O [1, 4]: 107 µg/mL
Assay ([2]; 2-8° C., 3 wk, 30240 min, listed as 25HC3S choline): 101.6 % w/w
% Impurities, Total [2, 6]: 1.0%
Assay ([2]; 2-8° C., 5 wk, 50400 min, listed as 25HC3S choline): 108.1 % w/w
% Impurities, Total [2, 7]: 0.9%
Overall physical and chemical stability (in words) ([2]; 2-8° C., 60° C., 80° C.): physically and chemically stable
Overall physical and chemical stability (in words) ([2]; 2-8° C., 60° C., 80° C., listed as 25HC3S choline): relatively stable
% Impurities, 25-HC [2, 6]: 0.2%
% Impurities, 25-HC [2, 7]: 0.2%
% Impurities, 25-HC [2, 8]: 0.4%
% Impurities, 25-HC [2, 9]: 0.2%
Stressed stability at 80° C. (in words) ([2]; 80° C.): good, stressed stability
% Recovery ([2]; 80° C., 3 wk, 30240 min, listed as 25HC3S choline, 30240 min): 100.8%
Assay ([2]; 80° C., 3 wk, 30240 min, listed as 25HC3S choline): 102.4 % w/w
% Impurities, Total [2, 8]: 1.2%
Assay ([2]; 80° C., 5 wk, 50400 min, listed as 25HC3S choline): 105.2 % w/w
% Impurities, Total [2, 9]: 2.2%
Stability after 5 weeks at 80° C. (in words) ([2]; solid state, 80° C., 5 weeks): stable
remaining at 840 h ([2]; solid state, 80° C., 5 wk, read-out: % Recovery, 2-8° C./5 wk vs 80° C./5 wk): 97.3%
Weight loss on return to 5% relative humidity ([3]; DVS desorption, 95% to 5% RH): 0.5%
Hygroscopicity (in words) ([3]; DVS, listed as 25HC3S choline): surprisingly low hygroscopicity
SMILES: CC(CCCC(C)(C)O)C1CCC2C3CC=C4CC(OS(=O)(=O)O)CCC4(C)C3CCC12C (stereo not shown) [Salt #4]
Physical and chemical solid-state stability (comments) ([2]; 80° C., 5 weeks): Stable after 5 weeks at 80 °C physically and chemically.
Reversibility of water uptake (in words) ([3]; DVS, RH reduced from 95% to 5%, listed as crystalline 25HC3S choline): no hysteresis; also recorded: reversibly lose all that water
Hygroscopicity (in words) ([3]; DVS, listed as crystalline 25HC3S choline): not appreciably hygroscopic; also recorded: less hygroscopic

solubility at 24 h ([1]; 0.9% nacl, room temperature, as free acid, ND = not detected, detection limit 0.7 μg/mL, read-out: Solubility in 0.9% NaCl): 2 µg/mL
Solubility in 5% Dextrose [1, 10]: 45 µg/mL
Solubility in FaSSGF (in words) ([1]; FaSSGF, room temperature, listed as crystalline 25HC3S hydroxyethylammonium): low solubility
Solubility in FaSSIF ([1]; FaSSIF, room temperature, as free acid, 1440 min, listed as 25HC3S hydroxyethylammonium): 107 µg/mL
Solubility in FaSSGF ([1]; Fasted State Simulated Gastric Fluid, pH 1.6, room temperature, as free acid, LOD 0.0007 mg/mL): no solubilized drug was detected
Solubility in FeSSIF ([1]; FeSSIF, room temperature, as free acid, 1440 min, listed as 25HC3S hydroxyethylammonium): 718 µg/mL
Solubility in methanol (in words) ([1]; MeOH, room temperature): did not reach saturation
Solubility in ACN [1, 11]: 200 µg/mL
Solubility in EtOH [1, 11]: ≥22000 µg/mL
Solubility in IPA [1, 11]: 3700 µg/mL
Solubility in MeOH [1, 11]: ≥47000 µg/mL
Solubility in H2O [1, 10]: 43 µg/mL
Assay ([2]; 2-8° C., 3 wk, 30240 min, listed as 25HC3S hydroxyethylammonium): 91.9 % w/w
% Impurities, Total [2, 12]: 3.1%
% Impurities, 25-HC [2, 12]: 1.2%
% Impurities, 25-HC [2, 13]: 11.3%
Assay ([2]; 60° C., 1 wk (after 3 weeks at 2-8° C.), 10080 min, listed as 25HC3S hydroxyethylammonium, 10080 min): 0.0 % w/w
% Recovery of 2-8° C./3 wk vs 60° C./1 wk ([2]; 60° C., 1 wk, 10080 min, listed as 25HC3S hydroxyethylammonium): 0.0%
% Impurities, Total [2, 13]: 99.7%
% Recovery ([2]; 80° C., 3 wk, 30240 min, listed as 25HC3S hydroxyethylammonium, 30240 min): 0.0%
Assay ([2]; 80° C., 3 wk, 30240 min, listed as 25HC3S hydroxyethylammonium): 0.0 % w/w
% Impurities, Total ([2]; 80° C., 3 wk, listed as 25HC3S hydroxyethylammonium): 100.1%
Stability after 1 week at 60° C. (in words) ([2]; solid state, 60° C., 1 week (after 3 weeks at 2-8° C.)): totally decomposed
Stability after 3 weeks at 80° C. (in words) ([2]; solid state, 80° C., 3 weeks): totally decomposed
Hygroscopicity (in words) ([3]; DVS, listed as crystalline 25HC3S hydroxyethylammonium): hygroscopic
SMILES: CC(CCCC(C)(C)O)C1CCC2C3CC=C4CC(OS(=O)(=O)O)CCC4(C)C3CCC12C (stereo not shown) [Salt #5]
Overall physical and chemical stability (in words) ([2]; 2-8° C., 60° C., 80° C.): least stable organic salt; also recorded: least physically and chemically stable
Physical and chemical solid-state stability (comments) ([2]; 60° C., 1 week, listed as 25HC3S Hydroxyethylammonium): Totally decomposed after 1 week at 60 °C and after 3 weeks at 80 °C
Physical and chemical solid-state stability (comments) ([2]; 80° C., 3 weeks, listed as 25HC3S Hydroxyethylammonium): Totally decomposed after 1 week at 60 °C and after 3 weeks at 80 °C
